≈ marks a conversion by molar mass, not a printed value.
Tests used:
[1] = biological target: T1, Recombinant human soluble guanylate cyclase (sGC), alpha 1 / beta 1 subunits, heme-free (Homo sapiens, UniProt Q02108+Q02153); test: Molecular assay: cGMP formation by heme-free recombinant sGC (CisBio cGMP detection kit); assay type: biochemical; conditions: 300 pM heme-free sGC, 37° C., 60 min, cGMP readout; read-out: EC50 nM, Activity of Compounds in Molecular Assay
T1 construct: histidine tag (C); made in house; host or cells: Sf9 insect cells (baculovirus coinfection)
T1 sequence (Q02108 1-690 partner): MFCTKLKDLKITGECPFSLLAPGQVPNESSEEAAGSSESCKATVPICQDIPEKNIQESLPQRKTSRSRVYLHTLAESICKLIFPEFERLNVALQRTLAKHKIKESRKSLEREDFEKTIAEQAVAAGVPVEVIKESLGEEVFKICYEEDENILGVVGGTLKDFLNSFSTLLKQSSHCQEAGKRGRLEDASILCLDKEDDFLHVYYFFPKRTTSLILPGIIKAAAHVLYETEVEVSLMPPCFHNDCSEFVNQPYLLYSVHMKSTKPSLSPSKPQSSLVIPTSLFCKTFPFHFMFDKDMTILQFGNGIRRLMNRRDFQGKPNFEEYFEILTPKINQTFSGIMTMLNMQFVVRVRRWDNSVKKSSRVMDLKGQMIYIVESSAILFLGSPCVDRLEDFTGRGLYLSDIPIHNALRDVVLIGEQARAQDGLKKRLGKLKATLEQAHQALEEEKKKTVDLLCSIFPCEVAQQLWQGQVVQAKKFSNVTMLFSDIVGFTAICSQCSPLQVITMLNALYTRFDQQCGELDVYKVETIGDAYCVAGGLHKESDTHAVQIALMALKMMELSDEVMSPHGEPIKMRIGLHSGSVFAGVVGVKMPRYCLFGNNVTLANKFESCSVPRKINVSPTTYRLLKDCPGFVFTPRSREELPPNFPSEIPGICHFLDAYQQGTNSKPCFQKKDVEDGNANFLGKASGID
T1 sequence (Q02153 1-619): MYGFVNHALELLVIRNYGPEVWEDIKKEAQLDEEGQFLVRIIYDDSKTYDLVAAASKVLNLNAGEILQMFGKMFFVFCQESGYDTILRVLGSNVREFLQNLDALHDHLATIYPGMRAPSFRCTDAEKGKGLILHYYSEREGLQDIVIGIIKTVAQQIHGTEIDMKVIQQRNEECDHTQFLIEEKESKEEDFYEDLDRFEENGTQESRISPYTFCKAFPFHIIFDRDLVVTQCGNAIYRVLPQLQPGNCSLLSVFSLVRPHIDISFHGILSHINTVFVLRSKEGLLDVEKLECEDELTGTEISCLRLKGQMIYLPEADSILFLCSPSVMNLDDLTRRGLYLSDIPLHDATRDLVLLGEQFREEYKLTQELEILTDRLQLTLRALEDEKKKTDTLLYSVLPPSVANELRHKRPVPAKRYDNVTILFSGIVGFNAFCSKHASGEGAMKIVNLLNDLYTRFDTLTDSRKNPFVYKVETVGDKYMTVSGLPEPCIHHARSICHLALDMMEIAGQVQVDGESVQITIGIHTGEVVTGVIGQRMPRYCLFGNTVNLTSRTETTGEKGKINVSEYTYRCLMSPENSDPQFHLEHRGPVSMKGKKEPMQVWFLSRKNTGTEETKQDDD
Procedure, shortened: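 Heme-free His-tagged sGC (Sf9-expressed, Tween 20-treated lysate) at 300 pM incubated with compounds (1% DMSO) for 60 min at 37° C in MOPS pH 6.8 with 50 nM GTP, IBMX, TCEP. cGMP quantified by HTRF against calibration curve; EC50 from combined undiluted/diluted values.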

[2] = Assessment of solubility: HT solubility in pION buffer, UV spectrophotometry; conditions: pION system solution buffer, kinetic from dmso stock, 16-19 h incubation, 1.0% DMSO
Experimental: Solubility is measured by the following method.
DMSO stock samples at 10 mM concentration are prepared. […] The samples are pierced and 100 ul of thawed samples are transferred into the PCR plate for analysis. Each sample is run in duplicate at each pH (pH 4.5 and 7.4). Up to 95 samples can be run in replicate at 2 pH's+1 DMSO (blank).
Preparation of pH 4.5 and 7.4 Buffers:
• pH 4.5 buffer:—To 12.5 of system solution (pION)qs to 500 mL of distilled water (pH 2.85-2.90); adjust the pH to pH 4.5 with 0.5 N NaOH. • pH 7.4 buffer: To 12.5 of system solution (pION)qs to 500 mL of distilled water (pH 2.85-2.90); adjust the pH to pH 7.4 with 0.5N NaOH. […] Procedure: Preparation of UV Blank Plate:
75 ul of buffer (pH 7.4 or pH 4.5) is added to UV plate followed by addition of 70 ul of N-propanol. The solution is mixed and the blank spectrum is read using spectrophotometer.
Preparation of Reference UV Plate:
10 ul of each stock sample (including DMSO control) is added to 190 ul of N-propanol to prepare the reference stock plate. Reference stock samples are mixed and 5 ul of each stock sample is added to UV blank plate after it is read spectrophotometrically. The reference stock sample is mixed with blank solution in UV plate and the reference spectrum is read using UV spectrophotometer.
Preparation of Sample for Incubation:
Solubility at pH 7.4:6 ul of each stock sample (including DMSO control) is added to the storage plate containing 600 ul of pH 7.4 buffer, mixed and incubated for 16-19 h. The plate is sealed well during the incubation process. The DMSO content in the sample is 1.0%. The concentration in deep well plates is 100 uM
6 ul of each stock sample (including DMSO control) is added to the deep well plate containing 600 ul of pH 4.5 buffer, mixed and incubated for 16-19 h. The plate is sealed well during the incubation process. The DMSO content in the sample is 1.0%. The concentration in deep well plates is 100 uM
Preparation of Sample UV Plate:
At the end of the incubation period, 100 uL of sample from the storage plate is vacuum filtered using a filter plate. This step wets the filters and the filtrate is discarded. Another 200 ul of the sample from the deep well plate is vacuum filtered using the same filter block but a clean filter plate. 75 ul of the filtrate from the filter plate is transferred to a UV sample plate. 75 ul of N-propanol is added to this UV plate. The solution is mixed and the spectrum is read using the UV spectrophotometer.
The spectra collected for blank, reference and sample from 250-498 nm is analyzed using pION software. If the sample precipitates out, the solubility is reported as XX μg/ml.

[3] = pH 4.5, pH 4.5, aqueous buffer, Solubility (pH 4.5), pH 4.5 buffer
[4] = pH 7.4, pH 7.4, aqueous buffer, Solubility (pH 7.4), pH 7.4 buffer

SMILES | EC50 [1] | solubility [2, 3] | solubility [2, 4]
Cc1cc(CN2CCOCC2)ccc1COc1ccc(Cl)cc1-c1csc(N2CCC(C(=O)O)CC2C)n1 (stereo not drawn) [Compound 84] | 180 nM | 14 µg/mL (≈ 25.2 µM) | 21 µg/mL (≈ 37.8 µM)
Cc1cc(C(=O)N2CCCCC2)ccc1COc1ccc(C#N)cc1-c1csc(N2CCC(C(=O)O)CC2C)n1 (stereo not drawn) [Compound 85] | 1100 nM | 0.35 µg/mL (≈ 0.626 µM) | > 55 µg/mL
Cc1cc(CN2CCOCC2)ccc1COc1ccc(C#N)cc1-c1csc(N2CC3CCC(C2)C3C(=O)O)n1 (stereo not drawn) [Compound 86] | 7100 nM | 3.5 µg/mL (≈ 6.26 µM) | 5.7 µg/mL (≈ 10.2 µM)
Cc1cc(CN2CCOCC2)ccc1COc1ccc(C#N)cc1-c1csc(N2C3CCC2CC(C(=O)O)C3)n1 (stereo not drawn) [Compound 87] | 800 nM | > 63 µg/mL | > 63 µg/mL
Cc1ccc(OCc2ccc(C(=O)N3CCCCC3)cc2C)c(-c2csc(N3C4CCC3CC(C(=O)O)C4)n2)c1 (stereo not drawn) [Compound 88] | 15 nM | 0.45 µg/mL (≈ 0.804 µM) | > 55 µg/mL
Cc1ccc(OCc2ccc(C(=O)N3CCCCC3)cc2C)c(-c2csc(N3CC4CCC(C3)C4C(=O)O)n2)c1 (stereo not drawn) [Compound 89, 3-(4-{5-methyl-2-[2-methyl-4-(piperidine-1-carbonyl)-benzyloxy]-phenyl}-thiazol-2-yl)-3-aza-bicyclo[3.2.1]octane-8-carboxylic acid] | 2.5 nM | 0.35 µg/mL (≈ 0.625 µM) | 32 µg/mL (≈ 57.2 µM)
Cc1ccc(OCc2ccc(C(=O)N3CCC(O)CC3)cc2C#N)c(-c2csc(N3CCC(C(=O)O)CC3)n2)c1 [Compound 90] | 150 nM | 35 µg/mL (≈ 62.4 µM) | > 56 µg/mL
Cc1ccc(OCc2ccc(CN(C)CC3CCCCC3)cc2C)c(-c2csc(N3CCC(C(=O)O)CC3)n2)c1 [Compound 91] | 730 nM | 31 µg/mL (≈ 55.2 µM) | 12 µg/mL (≈ 21.4 µM)
COCCCN(C)C(=O)c1ccc(COc2ccc(C)cc2-c2csc(N3CCC(C(=O)O)CC3)n2)c(C#N)c1 [Compound 92] | 78 nM | 20 µg/mL (≈ 35.5 µM) | 12 µg/mL (≈ 21.3 µM)
Cc1cc(CN2CCCC(C(N)=O)C2)ccc1COc1c(C)cccc1-c1csc(N2CCC(C(=O)O)CC2)n1 (stereo not drawn) [Compound 94] | 770 nM | > 56 µg/mL | > 56 µg/mL
CC(=O)N1CCN(Cc2ccc(COc3c(C)cccc3-c3csc(N4CCC(C(=O)O)CC4)n3)c(C)c2)CC1 [Compound 95] | 35 nM | > 56 µg/mL | > 56 µg/mL
Cc1ccc(OCc2ccc(CN(C)CC3CCOCC3)cc2C)c(-c2csc(N3CCC(C(=O)O)CC3)n2)c1 [Compound 96] | 550 nM | > 67 µg/mL | > 67 µg/mL
Cc1cc(C(=O)N2CCCCC2)ccc1COc1ccc(F)cc1-c1csc(N2C3CCC2CC(C(=O)O)C3)n1 (stereo not drawn) [Compound 97] | 59 nM | 0.45 µg/mL (≈ 0.798 µM) | > 56 µg/mL
Cc1cc(C(=O)N2CCCCC2)ccc1COc1ccc(F)cc1-c1csc(N2CC3CCC(C2)C3C(=O)O)n1 (stereo not drawn) [Compound 98] | 780 nM | 0.2 µg/mL (≈ 0.355 µM) | > 56 µg/mL
Cc1cc(CN2CCOCC2)ccc1COc1ccc(Cl)cc1-c1csc(N2CC3CCC(C2)C3C(=O)O)n1 (stereo not drawn) [Compound 99] | 690 nM | 4.7 µg/mL (≈ 8.27 µM) | 13 µg/mL (≈ 22.9 µM)
Cc1cc(CN2CCOCC2)ccc1COc1ccc(Cl)cc1-c1csc(N2C3CCC2CC(C(=O)O)C3)n1 (stereo not drawn) [Compound 100] | 440 nM | 20 µg/mL (≈ 35.2 µM) | 27 µg/mL (≈ 47.5 µM)
Cc1ccc(OCc2ccc(CN3CCS(=O)(=O)CC3)cc2C)c(-c2csc(N3CC4C(C3)C4C(=O)O)n2)c1 (stereo not drawn) [Compound 101] | 1700 nM | 3 µg/mL (≈ 5.28 µM) | > 56 µg/mL
Cc1cc(C(=O)N2CCCCC2)ccc1COc1ccc(Cl)cc1-c1csc(N2CCC(C(=O)O)CC2C)n1 (stereo not drawn) [Compound 102] | 30 nM | 0.25 µg/mL (≈ 0.44 µM) | 26 µg/mL (≈ 45.8 µM)
Cc1cc(C(=O)N2CCCCC2)ccc1COc1ccc(Cl)cc1-c1csc(N2CCC(C(=O)O)C(C)C2)n1 (stereo not drawn) [Compound 103] | 17 nM | 0.3 µg/mL (≈ 0.528 µM) | 35 µg/mL (≈ 61.6 µM)
Cc1ccc(OCc2ccc(CN3CCS(=O)(=O)CC3)cc2C)c(-c2csc(N3CCC(C(=O)O)CC3)n2)c1 [Compound 104] | 19 nM | 0.35 µg/mL (≈ 0.614 µM) | > 68 µg/mL
Cc1cc(CN2CCS(=O)(=O)CC2)ccc1COc1c(C)cccc1-c1csc(N2CCC(C(=O)O)CC2)n1 [Compound 105] | 37 nM | 8.9 µg/mL (≈ 15.6 µM) | > 56 µg/mL
Cc1ccc(OCc2ccc(C(=O)N3CCC(F)(F)CC3)cc2C)c(-c2csc(N3CCC(C(=O)O)CC3)n2)c1 [Compound 106] | 100 nM | 0.3 µg/mL (≈ 0.527 µM) | > 56 µg/mL
Cc1cc(CN2CCS(=O)(=O)CC2)ccc1COc1ccccc1-c1csc(N2CCC(C(=O)O)C(C)C2)n1 (stereo not drawn) [Compound 107] | 71 nM | 0.65 µg/mL (≈ 1.14 µM) | > 56 µg/mL
Cc1cc(CN2CCS(=O)(=O)CC2)ccc1COc1ccccc1-c1csc(N2CCC(C(=O)O)CC2C)n1 (stereo not drawn) [Compound 108] | 100 nM | 2.3 µg/mL (≈ 4.04 µM) | > 56 µg/mL
Cc1cc(C(=O)N2CCCCC2)ccc1COc1ccc(C#N)cc1-c1csc(N2C3CCC2CC(C(=O)O)C3)n1 (stereo not drawn) [Compound 109] | 1500 nM | 0.65 µg/mL (≈ 1.14 µM) | > 56 µg/mL
Cc1cc(CN2CCS(=O)(=O)CC2)ccc1COc1ccc(F)cc1-c1csc(N2CC3C(C2)C3C(=O)O)n1 (stereo not drawn) [Compound 110] | 1200 nM | 0.35 µg/mL (≈ 0.612 µM) | > 57 µg/mL
Cc1cc(CN2CCS(=O)(=O)CC2)ccc1COc1ccc(F)cc1-c1csc(N2CCC(C(=O)O)CC2)n1 [Compound 111] | 74 nM | 0.25 µg/mL (≈ 0.436 µM) | > 57 µg/mL
Cc1ccc(OCc2ccc(CN(C)CC3CCOCC3)cc2C#N)c(-c2csc(N3CCC(C(=O)O)CC3)n2)c1 [Compound 112] | 400 nM | > 68 µg/mL | > 68 µg/mL
Cc1cc(CN2CCOCC2)ccc1COc1c(-c2csc(N3CCC(C(=O)O)CC3)n2)cccc1C(F)(F)F [Compound 113] | 56 nM | > 57 µg/mL | > 57 µg/mL
Cc1cc(CN2CCOCC2)ccc1COc1ccccc1-c1csc(N2CCC(C(=O)O)CC2C(F)(F)F)n1 (stereo not drawn) [Compound 114] | 470 nM | 30 µg/mL (≈ 52.1 µM) | > 57 µg/mL
